ChEMBL document CHEMBL2380197, “Discovery of ML326: The first sub-micromolar, selective M5 PAM” (Bioorg Med Chem Lett, 2013)
Positions count from the first letter of the chain named.

Experiments:
[1] = biological target: T1, Muscarinic acetylcholine receptor M4 (Homo sapiens, UniProt P08173); experiment: Positive allosteric modulation of human muscarinic M4 receptor
T1 sequence (P08173 whole entry): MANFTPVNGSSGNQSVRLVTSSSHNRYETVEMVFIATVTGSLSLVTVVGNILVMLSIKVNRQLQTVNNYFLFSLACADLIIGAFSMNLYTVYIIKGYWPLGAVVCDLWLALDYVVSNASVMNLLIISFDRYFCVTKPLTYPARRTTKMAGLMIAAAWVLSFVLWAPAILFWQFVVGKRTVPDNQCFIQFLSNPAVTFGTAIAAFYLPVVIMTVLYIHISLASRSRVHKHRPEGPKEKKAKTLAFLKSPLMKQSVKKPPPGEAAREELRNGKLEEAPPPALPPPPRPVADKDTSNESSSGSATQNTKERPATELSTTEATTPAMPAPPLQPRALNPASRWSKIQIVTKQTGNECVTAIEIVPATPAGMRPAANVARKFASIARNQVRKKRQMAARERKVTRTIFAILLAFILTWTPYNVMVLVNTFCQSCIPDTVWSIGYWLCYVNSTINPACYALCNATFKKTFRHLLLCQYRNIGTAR

[2] = biological target: T2, Muscarinic acetylcholine receptor M5 (Homo sapiens) (UniProt P08912); experiment: Positive allosteric modulation of human muscarinic M5 receptor assessed as fold shift of acetylcholine-induced response at 30 uM
T2 sequence (whole entry): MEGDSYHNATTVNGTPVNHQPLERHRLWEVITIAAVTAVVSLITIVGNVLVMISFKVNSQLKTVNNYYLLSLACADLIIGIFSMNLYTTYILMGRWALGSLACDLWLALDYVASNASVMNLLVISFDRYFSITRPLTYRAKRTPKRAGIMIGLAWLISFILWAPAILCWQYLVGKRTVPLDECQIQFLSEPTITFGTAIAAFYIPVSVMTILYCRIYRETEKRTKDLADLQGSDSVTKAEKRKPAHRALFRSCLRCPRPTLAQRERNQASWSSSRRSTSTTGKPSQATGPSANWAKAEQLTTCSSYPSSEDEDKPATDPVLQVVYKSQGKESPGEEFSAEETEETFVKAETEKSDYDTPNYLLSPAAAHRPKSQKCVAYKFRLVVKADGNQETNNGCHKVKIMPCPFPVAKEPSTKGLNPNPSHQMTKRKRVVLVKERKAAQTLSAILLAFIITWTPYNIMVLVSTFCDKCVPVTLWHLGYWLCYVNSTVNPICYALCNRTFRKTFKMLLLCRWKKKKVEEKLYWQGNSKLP

[3] = biological target: T3, Muscarinic acetylcholine receptor M2 (Homo sapiens, UniProt P08172); experiment: Positive allosteric modulation of human muscarinic M2 receptor
T3 sequence (P08172 whole entry): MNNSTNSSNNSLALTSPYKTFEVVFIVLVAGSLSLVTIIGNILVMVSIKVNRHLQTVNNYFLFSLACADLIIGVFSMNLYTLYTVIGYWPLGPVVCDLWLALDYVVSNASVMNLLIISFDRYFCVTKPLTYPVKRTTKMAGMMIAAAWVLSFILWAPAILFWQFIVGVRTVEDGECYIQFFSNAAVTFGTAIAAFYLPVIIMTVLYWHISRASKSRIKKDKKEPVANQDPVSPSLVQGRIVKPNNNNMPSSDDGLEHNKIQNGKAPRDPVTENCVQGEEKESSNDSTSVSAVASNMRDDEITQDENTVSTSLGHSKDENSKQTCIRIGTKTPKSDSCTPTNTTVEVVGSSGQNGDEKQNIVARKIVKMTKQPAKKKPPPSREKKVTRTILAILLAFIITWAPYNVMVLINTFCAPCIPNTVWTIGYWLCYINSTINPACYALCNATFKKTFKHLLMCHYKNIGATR

[4] = biological target: Muscarinic acetylcholine receptor M3 (Homo sapiens, UniProt P20309); experiment: Positive allosteric modulation of human muscarinic M3 receptor
[5] = biological target: T4, Muscarinic acetylcholine receptor M1 (Homo sapiens, UniProt P11229); experiment: Positive allosteric modulation of human muscarinic M1 receptor
T4 sequence (P11229 whole entry): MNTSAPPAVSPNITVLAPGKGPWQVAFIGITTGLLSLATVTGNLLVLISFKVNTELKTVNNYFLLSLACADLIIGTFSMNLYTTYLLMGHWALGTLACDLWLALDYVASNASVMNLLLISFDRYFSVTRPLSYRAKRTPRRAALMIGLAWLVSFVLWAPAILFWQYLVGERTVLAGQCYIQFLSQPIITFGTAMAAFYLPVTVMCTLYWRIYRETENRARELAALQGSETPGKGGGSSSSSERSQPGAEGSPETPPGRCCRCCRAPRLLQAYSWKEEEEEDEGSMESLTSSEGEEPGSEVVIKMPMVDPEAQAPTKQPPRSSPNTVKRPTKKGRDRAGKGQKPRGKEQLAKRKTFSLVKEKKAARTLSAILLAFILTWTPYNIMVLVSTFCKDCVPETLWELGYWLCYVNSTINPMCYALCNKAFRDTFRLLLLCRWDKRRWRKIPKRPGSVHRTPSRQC

[6] = biological target: T5, Muscarinic acetylcholine receptor M5 (Homo sapiens, UniProt P08912); experiment: Positive allosteric modulation of human muscarinic M5 receptor
T5 sequence (P08912 whole entry): T2 sequence (whole entry)

[7] = biological target: T2, Muscarinic acetylcholine receptor M5 (Homo sapiens); experiment: Positive allosteric modulation of human muscarinic M5 receptor relative to acetylcholine
[8] = biological target: T2, Muscarinic acetylcholine receptor M5 (Homo sapiens); experiment: Positive allosteric modulation of human muscarinic M5 receptor at 3 uM relative to acetylcholine
[9] = biological target: T6, Muscarinic acetylcholine receptor M5 (Rattus norvegicus) (UniProt P08911); experiment: Positive allosteric modulation of rat muscarinic M5 receptor relative to acetylcholine
T6 sequence (whole entry): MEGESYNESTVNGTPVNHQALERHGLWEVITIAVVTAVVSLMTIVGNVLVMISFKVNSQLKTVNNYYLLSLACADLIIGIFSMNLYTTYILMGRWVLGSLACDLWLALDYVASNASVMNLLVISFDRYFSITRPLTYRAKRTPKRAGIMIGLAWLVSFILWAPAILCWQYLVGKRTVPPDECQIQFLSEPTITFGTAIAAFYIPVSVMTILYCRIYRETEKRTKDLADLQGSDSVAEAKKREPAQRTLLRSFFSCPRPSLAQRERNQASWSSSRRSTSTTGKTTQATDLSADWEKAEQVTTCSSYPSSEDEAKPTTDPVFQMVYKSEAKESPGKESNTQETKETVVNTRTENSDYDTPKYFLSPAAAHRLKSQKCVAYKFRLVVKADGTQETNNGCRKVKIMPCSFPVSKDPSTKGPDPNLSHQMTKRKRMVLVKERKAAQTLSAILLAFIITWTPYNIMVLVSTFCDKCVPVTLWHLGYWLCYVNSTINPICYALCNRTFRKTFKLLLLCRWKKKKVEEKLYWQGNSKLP

[10] = biological target: T7, Muscarinic acetylcholine receptor M4 (Rattus norvegicus, UniProt P08485); experiment: Positive allosteric modulation of rat muscarinic M4 receptor
T7 sequence (P08485 whole entry): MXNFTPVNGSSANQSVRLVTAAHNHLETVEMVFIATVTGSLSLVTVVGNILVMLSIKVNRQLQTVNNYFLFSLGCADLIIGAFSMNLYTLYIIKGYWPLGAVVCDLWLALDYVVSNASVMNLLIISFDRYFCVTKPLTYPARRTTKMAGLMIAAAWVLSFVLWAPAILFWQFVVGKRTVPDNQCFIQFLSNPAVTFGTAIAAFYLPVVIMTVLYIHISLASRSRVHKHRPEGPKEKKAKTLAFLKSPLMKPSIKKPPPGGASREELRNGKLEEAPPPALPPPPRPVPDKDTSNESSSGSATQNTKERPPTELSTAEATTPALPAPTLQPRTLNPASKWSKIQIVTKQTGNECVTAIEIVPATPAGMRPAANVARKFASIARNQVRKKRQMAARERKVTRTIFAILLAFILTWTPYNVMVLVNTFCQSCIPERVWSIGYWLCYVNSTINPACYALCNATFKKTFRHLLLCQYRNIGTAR

[11] = biological target: T8, Muscarinic acetylcholine receptor M2 (Rattus norvegicus, UniProt P10980); experiment: Positive allosteric modulation of rat muscarinic M2 receptor
T8 sequence (P10980 whole entry): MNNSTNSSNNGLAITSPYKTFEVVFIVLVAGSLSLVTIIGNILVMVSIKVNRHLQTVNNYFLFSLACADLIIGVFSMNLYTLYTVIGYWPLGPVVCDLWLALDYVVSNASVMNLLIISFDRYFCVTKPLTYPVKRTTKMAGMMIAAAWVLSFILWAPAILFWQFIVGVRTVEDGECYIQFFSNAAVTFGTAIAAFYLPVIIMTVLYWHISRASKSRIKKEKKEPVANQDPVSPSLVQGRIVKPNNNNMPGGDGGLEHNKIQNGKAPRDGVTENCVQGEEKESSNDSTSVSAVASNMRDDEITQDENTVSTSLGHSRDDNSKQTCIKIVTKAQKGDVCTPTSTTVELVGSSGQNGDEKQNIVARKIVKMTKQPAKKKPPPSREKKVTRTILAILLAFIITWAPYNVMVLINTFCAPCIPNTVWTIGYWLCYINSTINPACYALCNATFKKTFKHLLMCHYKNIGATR

[12] = biological target: T9, Muscarinic acetylcholine receptor M1 (Rattus norvegicus, UniProt P08482); experiment: Positive allosteric modulation of rat muscarinic M1 receptor
T9 sequence (P08482 whole entry): T4 sequence (P11229 whole entry) with A5V, T254S, P309S, R320K, A337G, I413V

[13] = biological target: Muscarinic acetylcholine receptor M3 (Rattus norvegicus, UniProt P08483); experiment: Positive allosteric modulation of rat muscarinic M3 receptor
Chain of Muscarinic acetylcholine receptor M3 (Rattus norvegicus, UniProt P08483) (P08483 whole entry): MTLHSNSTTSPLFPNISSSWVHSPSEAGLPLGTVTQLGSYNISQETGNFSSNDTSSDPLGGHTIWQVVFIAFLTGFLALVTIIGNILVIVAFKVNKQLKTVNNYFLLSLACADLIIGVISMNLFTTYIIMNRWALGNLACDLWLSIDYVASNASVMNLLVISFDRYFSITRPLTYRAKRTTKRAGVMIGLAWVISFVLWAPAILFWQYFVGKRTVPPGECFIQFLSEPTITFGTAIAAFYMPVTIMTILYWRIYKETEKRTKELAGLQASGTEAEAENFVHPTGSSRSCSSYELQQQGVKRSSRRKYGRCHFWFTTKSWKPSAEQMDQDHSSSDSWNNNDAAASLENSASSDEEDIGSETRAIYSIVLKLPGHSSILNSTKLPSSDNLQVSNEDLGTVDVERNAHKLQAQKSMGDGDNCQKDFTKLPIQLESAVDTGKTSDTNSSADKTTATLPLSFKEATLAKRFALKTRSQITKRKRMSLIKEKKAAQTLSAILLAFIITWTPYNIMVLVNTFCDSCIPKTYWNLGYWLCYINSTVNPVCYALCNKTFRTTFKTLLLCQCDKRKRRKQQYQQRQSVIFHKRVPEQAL

Chain of Muscarinic acetylcholine receptor M3 (Homo sapiens, UniProt P20309) (P20309 whole entry): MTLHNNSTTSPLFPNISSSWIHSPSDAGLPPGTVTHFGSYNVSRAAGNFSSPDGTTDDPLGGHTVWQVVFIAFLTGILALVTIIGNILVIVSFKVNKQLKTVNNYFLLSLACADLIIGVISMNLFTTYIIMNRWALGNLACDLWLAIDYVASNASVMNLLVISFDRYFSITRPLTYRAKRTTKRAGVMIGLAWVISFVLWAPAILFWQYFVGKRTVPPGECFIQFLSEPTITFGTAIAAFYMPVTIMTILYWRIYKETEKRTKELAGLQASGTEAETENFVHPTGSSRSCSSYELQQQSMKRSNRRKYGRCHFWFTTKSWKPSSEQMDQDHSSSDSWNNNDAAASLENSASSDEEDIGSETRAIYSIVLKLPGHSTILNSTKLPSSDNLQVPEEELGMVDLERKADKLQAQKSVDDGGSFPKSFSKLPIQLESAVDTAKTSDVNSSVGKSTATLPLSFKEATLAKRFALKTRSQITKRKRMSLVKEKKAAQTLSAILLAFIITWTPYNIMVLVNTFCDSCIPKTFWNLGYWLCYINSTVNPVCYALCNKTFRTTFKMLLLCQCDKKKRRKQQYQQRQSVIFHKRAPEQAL

Row | Structure (SMILES) | EC50 [1] | fold change (FC) [2] | EC50 [3] | EC50 [4] | EC50 [5] | EC50 [6] | Emax [7] | also measured
1 | O=C1C(=O)N(Cc2ccc(Oc3ccccc3)cc2)c2ccc(OC(F)(F)F)cc21 | > 30 µM | 5 | > 30 µM | > 30 µM | > 30 µM |  |  | 
2 | COc1ccc(OCCN2C(=O)C(=O)c3cc(OC(F)(F)F)ccc32)cc1 |  |  |  |  |  | 0.59 µM | 89% | 
3 | O=C1C(=O)N(CCOc2ccc(Cl)cc2)c2ccc(OC(F)(F)F)cc21 |  |  |  |  |  | 0.45 µM | 92% | 
4 | O=C1C(=O)N(Cc2ccc(Oc3cccc(F)n3)cc2)c2ccc(OC(F)(F)F)cc21 | > 30 µM | 6 | > 30 µM | > 30 µM | > 30 µM |  |  | 
5 | Cc1cccc2c1N(CCOc1ccccc1)C(=O)C2=O |  |  |  |  |  |  |  | Emax [8]: 31%
6 | COc1ccc(CN2C(=O)C(O)(C[N+](=O)[O-])c3cc(OC(F)(F)F)ccc32)cc1 (stereo not given) |  |  |  |  |  | 1.4 µM | 75% | 
7 | COc1ccc(CN2C(=O)C(=O)c3cc(OC(F)(F)F)ccc32)cc1 | > 30 µM | 14 | > 30 µM | > 30 µM | > 30 µM |  |  | fold change (FC) [9]: 20
8 | COc1ccc(CN2C(=O)C(O)(c3ccc(F)nc3)c3cc(OC(F)(F)F)ccc32)cc1 (stereo not given) |  |  |  |  |  | 2.2 µM | 74% | 
9 | O=C1C(=O)N(CCOc2ccc(Oc3ccccc3)cc2)c2ccc(OC(F)(F)F)cc21 |  |  |  |  |  | 1.05 µM | 93% | 
10 | O=C1C(=O)N(CCOc2ccccc2)c2ccc(OC(F)(F)F)cc21 | > 30 µM | 20 | > 30 µM | > 30 µM | > 30 µM | 0.41 µM | 91% | fold change (FC) [9]: 20; EC50 [10]: > 30 µM; EC50 [11]: > 30 µM; EC50 [12]: > 30 µM; EC50 [13]: > 30 µM
11 | Cc1cccc(OCCN2C(=O)C(=O)c3cc(OC(F)(F)F)ccc32)c1 |  |  |  |  |  | 0.53 µM | 91% | 
12 | Cn1cc(-c2ccc(CN3C(=O)C(=O)c4ccccc43)c(F)c2)cn1 | > 30 µM |  | > 30 µM | > 30 µM |  |  | 45% | 
